# Columns and labels:
# [1] = test system: E. coli (ATCC 25922) biofilm; assay: MBEC assay, activity against established 24 hour biofilm; format: cell-based, Escherichia coli; details: 24 hours challenge
# Protocol: (§1) The MBEC™ assay (formerly the Calgary biofilm device; Innovotech Inc., Canada) is a well-established high throughput assay for assessment of anti-biofilm activity of test agents in a 96-well format. Within this assay, the biofilm is formed on the plastic pegs of the plate lid. After inoculated media is introduced to the wells of the 96-well plate, the plate is placed in a shaking incubator to generate the necessary shear force for biofilm growth on the pegs. Following a suitable incubation time, the individual biofilms can be treated with varying concentrations of test agents (challenge plate). After the desired treatment time, the remaining biofilm-associated bacteria are retrieved from the pegs through sonication (recovery plate). Serial dilution and/or plating of the recovered bacterial suspension allow for the quantification of test agents' efficacy against pre-formed biofilms. Additionally, readout of the challenge plate from the biofilm treatment can be used to determine MIC values of test agents. The absence of growth in the recovery plate indicates complete biofilm eradication and the lowest concentration of a test agent that achieves this is designated as the minimum biofilm eradication concentration (MBEC). The MBEC™ assay is also amenable to assess potential synergistic effects of combination treatments, as well as efficacy of test agents in inhibiting or inducing biofilm formation. The MBEC™ plates were inoculated with 10^7 CFU/mL of stationary phase E. coli (ATCC 25922) and incubated for 24 hours to allow formation of a robust biofilm. The individual biofilms formed on the pegs were challenged with varying concentrations of antibiotics for 24 hours, followed by recovery of the surviving bacteria. Bacterial enumeration was performed using a Most Probable Number (MPN) assay (Sutton, Journal of Validation Technology 16 (3): 35-38, 2010, incorporated herein by reference) in a 96-well format.
# [2] = test system: E. coli (ATCC 25922) biofilm; assay: MBEC assay, inhibition of biofilm formation; format: cell-based, Escherichia coli
# Protocol: as §1, with “formation.” for “formation. The MBEC™ plates were inoculated with 10^7 CFU/mL of stationary phase E. coli (ATCC 25922) and incubated for 24 hours to allow formation of a robust biofilm. The individual biofilms formed on the pegs were challenged with varying concentrations of antibiotics for 24 hours, followed by recovery of the surviving bacteria. Bacterial enumeration was performed using a Most Probable Number (MPN) assay (Sutton, Journal of Validation Technology 16 (3): 35-38, 2010, incorporated herein by reference) in a 96-well format.”
# The MBEC™ plates were inoculated with either 10^5 CFU/mL (low inoculum) or 10^7 CFU/mL (high inoculum) of stationary phase E. coli (ATCC 25922) with simultaneous addition of antibiotics to evaluate the progression of biofilm formation under antibiotic challenge. After 24 hour incubation, the bacteria were recovered and enumerated (as above). FIG. 6. […] FIG. 7.
smiles,measurement,setting,value
O=C(O)c1cn(C2CC2)c2cc(N3CCNCC3)c(F)cc2c1=O [ciprofloxacin],reduction of total biofilm-associated bacteria,[1]; at around MIC,did not show activity
same,reduction in bioburden,[1]; at higher concentrations,up to 5 log units
same,reduction in total bioburden of biofilm compared to control,"[2]; (approx. 15% of MIC), low inoculum",no reduction in the total bioburden
same,induction of biofilm formation,[2]; sub-MIC doses,did not induce biofilm formation

# Reference: patent US10238670B2, “9-aminomethyl minocycline compounds and methods of use thereof in urinary tract infection (UTI) treatment” (Paratek Pharmaceuticals, Inc., priority 2016, dated 2019)
